Results on four molecules are retold here after patent US20230313296A1, “USING FLUORESCENT COLLAGEN α 1(I) AND α 2(I) mRNAs TO SCREEN DRUG CANDIDATES” (Florida State University Research Foundation, Inc., priority 2022, published 2023).

The subject of series [1] is collagen ɑ1(I) 5′SL mRNA (2AP at G10). Put plainly: Fluorescence measurement of the fluorescent ɑ1(I) 5′SL compound with test compound. To be noted: test compound added in micromolar concentrations; FIG. 5 top panel. The series is classed as binding, human. From the text: When the first fluorescent compound has the fluorophore 2AP substituted at the G10 position of the collagen ɑ1(I) 5′ stem loop mRNA and the fluorescence intensity increases, this indicates the first fluorescent compound has bound to LARP6.
(§1) The fluorescence intensity of the 2AP and PC fluorophores depends on their environment in the RNA fold, and the environment changes upon LARP6 or test compound binding to the RNA. The increase in fluorescence is seen if a fluorophore rotates outwards from its position within the RNA. This was seen when LARP6 bound to the fluorescent ɑ1(I) 5′SL compound. The fluorescence decreases if a fluorophore is masked by the bound drug or LARP6.
(§2) Referring to FIG. 5, the fluorescence measurements were performed using epirubicin as the test compound or drug.

The test system of series [2] is collagen ɑ2(I) 5′SL mRNA (PC at C37). Description: Fluorescence measurement of the fluorescent ɑ2(I) 5′SL compound with test compound. The settings on record: increasing drug concentrations; FIG. 5 bottom panel. The series is classed as binding, human.
Description: When the second fluorescent compound has the fluorophore PC at the C37 position of the collagen ɑ2(I) 5′ stem loop mRNA and the fluorescence intensity decreases when contacted with LARP6, this indicates binding of the second fluorescent compound to LARP6.
as §1, §2

For series [3], the system named is complex of recombinant LA-domain of LARP6 with 5′SL RNA. Description: Gel mobility shift assay of LA-domain/5′SL RNA complex. The series is classed as binding. The settings on record: FIG. 6 lanes 4 and 5. An excerpt: FIG. 6 is a gel mobility shift assay showing free RNA (RNA) and complex of LA-domain bound to RNA (RNA/LA). Lane 1 contains RNA only. Lane 2 contains the RNA/LA complex in absence of the test compound. Lanes 3-5 show dissociation of RNA/LA complexes with the test compound.
The inhibitory effect of this test compound on LARP6 binding was directly tested by gel mobility shift experiments, the results of which are in FIG. 6. This assay confirms the formation of a protein/RNA complex by physically separating them from free RNA. Without the test compound, the recombinant LA-domain of LARP6 formed a complex with 5′SL RNA (FIG. 6, lane 2, RNA/LA). […] This proves that the fluorescent 5′SL RNA compounds can be used to identify molecules that interact with 5′SL RNA and that are competitors of LARP6 binding and may be antifibrotic drugs.

Series [4] concerns the target T1, recombinant LA-domain of LARP6 (Homo sapiens, UniProt Q9BRS8).
T1 construct: recombinant LA-domain of LARP6
T1 sequence (Q9BRS8 86-177 limits assumed): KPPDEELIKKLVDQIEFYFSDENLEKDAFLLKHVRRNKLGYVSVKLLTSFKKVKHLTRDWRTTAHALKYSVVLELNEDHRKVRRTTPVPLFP
Put plainly: Fluorescence of the fluorescent ɑ1(I) 5′SL compound on LA-domain binding. The settings on record: saturating amounts of LA-domain vs free compound; p<0.0001; FIG. 3. As to the method:
The increase resulted from flipping of the 2AP at the G10 position out of the fold. The increase in intensity of the excitation spectrum (left, measured at 370 nm emission) and the emission spectrum (right, measured at 310 nm excitation) were apparent when increasing concentrations of recombinant LA-domain of LARP6 were added to the sensor. The LA-domain is necessary and sufficient for 5′SL RNA recognition by LARP6 and recapitulates the full size LARP6 binding.
The increase in intensity of fluorescence emission with binding of the LA-domain was quantified by measuring the fluorescence of free fluorescent ɑ1(I) 5′SL compound and the same compound bound with saturating amounts of the LA-domain.
The intensity increased about 2-fold with statistical significance of p<0.0001.

In series [5] the target is T1, recombinant LA-domain of LARP6. Description: Fluorescence of the fluorescent ɑ2(I) 5′SL compound on LA-domain binding. The settings on record: increasing concentrations of recombinant LA-domain; FIG. 4. From the text: This compound was less bright because its fluorophore has an emission that is about 7-fold less intense than that of the fluorescent ɑ1(I) 5′SL compound.
(§3) The decrease in the excitation spectrum (left, measured at 450 nm emission) and the emission spectrum (right, measured at 340 nm excitation) with increasing concentrations of recombinant LA-domain is shown in FIG. 5.

Another series addresses T2, LARP6 LA-domain (UniProt Q9BRS8 Q9BRS8:86-177).
T2 sequence: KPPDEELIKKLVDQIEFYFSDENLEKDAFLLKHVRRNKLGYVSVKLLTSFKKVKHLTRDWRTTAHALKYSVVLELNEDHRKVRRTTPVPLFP
Description: pyrrolo-cytidine fluorescence decreases with increasing LA-domain. The settings on record: label: pyrrolo-cytidine at position 37; 5' stem-loop.
Description: as §3

Take `COc1cccc2c1C(=O)c1c(O)c3c(c(O)c1C2=O)C[C@@](O)(C(=O)CO)C[C@@H]3O[C@H]1C[C@H](N)[C@@H](O)[C@H](C)O1` [epirubicin]: the “change of fluorescence intensity of the fluorescent ɑ1(I) 5′SL compound” value in series [1] was “decreased in the concentration dependent manner”. Also, the “change of fluorescence intensity of the fluorescent ɑ2(I) 5′SL compound” value in series [2] was “decrease in fluorescence with increasing drug concentrations”. Further, in series [3], the “concentration of test compound at which formation of RNA/LA complex was diminished” value is recorded as greater than 50 µM.

For “fluorescent ɑ1(I) 5′SL compound: SEQ ID NO: 1 collagen ɑ1(I) 5′SL RNA with G10 nucleotide substituted with 2-amino-purine (2AP) (CCACAAAGAGUCUACAUGUCUAGGGUCUAGACAUGUUCAGCUUUGUGG; G10 replaced by 2-aminopurine; listed as Homo sapiens)”, in series [4], the “increase in intensity of fluorescent emission on binding of the LA-domain” value was “about 2 fold”.

On to “fluorescent ɑ2(I) 5′SL compound: SEQ ID NO: 2 collagen ɑ2(I) 5′SL RNA with C37 nucleotide substituted with pyrrolo-cytidine (PC)”, for which, in series [5], the “fluorescence response to LA-domain binding” value is reported as “decreasing its fluorescence”.

As for CACAAGGAGUCUGCAUGUCUAAGUGCUAGACAUGCUCAGCUUUGUG (ssRNA, C37 substituted with pyrrolo-cytidine) [fluorescent collagen a2(I) 5'SL], the binding result with LARP6 LA-domain is “binds”.
